Test results published in the supplement of paper PMC10307832.

Experiments:
Assay in all cases: relative viability (nuclei count vs DMSO), 5 days (fraction); higher = more cells survive
Sorafenib + Palbociclib = compound: CNC(=O)c1cc(Oc2ccc(NC(=O)Nc3ccc(Cl)c(C(F)(F)F)c3)cc2)ccn1 [Sorafenib] + CC(=O)c1c(C)c2cnc(Nc3ccc(N4CCNCC4)cn3)nc2n(C2CCCC2)c1=O [Palbociclib] (partner 0.5 µM)
Method in brief: (§1)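 Lung cancer cell lines were pin-tool dosed in 1536-well plates on the day after seeding, with either a lone drug or a fixed anchor-drug dose plus five library-drug doses (not always all listed) in √10 steps. Nuclei were counted on 4× images after 5 days. Relative viability is the ratio of treated-well to vehicle-well nuclei counts, with each value a median of duplicate plates.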

Sorafenib + Bortezomib = compound: CNC(=O)c1cc(Oc2ccc(NC(=O)Nc3ccc(Cl)c(C(F)(F)F)c3)cc2)ccn1 [Sorafenib] + CC(C)C[C@H](NC(=O)[C@H](Cc1ccccc1)NC(=O)c1cnccn1)B(O)O [Bortezomib] (partner 0.002 µM)
Method in brief: as §1

Sorafenib + Navitoclax = compound: CNC(=O)c1cc(Oc2ccc(NC(=O)Nc3ccc(Cl)c(C(F)(F)F)c3)cc2)ccn1 [Sorafenib] + CC1(C)CCC(c2ccc(Cl)cc2)=C(CN2CCN(c3ccc(C(=O)NS(=O)(=O)c4ccc(N[C@H](CCN5CCOCC5)CSc5ccccc5)c(S(=O)(=O)C(F)(F)F)c4)cc3)CC2)C1 [Navitoclax] (partner 0.5 µM)
Method in brief: as §1

Sorafenib + OSI-027 = compound: CNC(=O)c1cc(Oc2ccc(NC(=O)Nc3ccc(Cl)c(C(F)(F)F)c3)cc2)ccn1 [Sorafenib] + COc1cccc2cc(-c3nc([C@H]4CC[C@H](C(=O)O)CC4)n4ncnc(N)c34)[nH]c12 [OSI-027] (partner 0.5 µM)
Method in brief: as §1

Sorafenib + Decitabine = compound: CNC(=O)c1cc(Oc2ccc(NC(=O)Nc3ccc(Cl)c(C(F)(F)F)c3)cc2)ccn1 [Sorafenib] + Nc1ncn([C@H]2C[C@H](O)[C@@H](CO)O2)c(=O)n1 [Decitabine] (partner 2 µM)
Method in brief: as §1

Cell Line | relative viability (Sorafenib + Palbociclib; first compound 0.08 µM) | relative viability (Sorafenib + Palbociclib; first compound 0.253 µM) | relative viability (Sorafenib + Palbociclib; first compound 2.53 µM) | relative viability (Sorafenib + Palbociclib; first compound 8 µM) | relative viability (Sorafenib + Bortezomib; first compound 0.08 µM) | relative viability (Sorafenib + Bortezomib; first compound 0.253 µM) | relative viability (Sorafenib + Bortezomib; first compound 2.53 µM) | relative viability (Sorafenib + Bortezomib; first compound 8 µM) | relative viability (Sorafenib + Navitoclax; first compound 0.08 µM) | relative viability (Sorafenib + Navitoclax; first compound 0.253 µM) | relative viability (Sorafenib + Navitoclax; first compound 2.53 µM) | relative viability (Sorafenib + Navitoclax; first compound 8 µM) | relative viability (Sorafenib + OSI-027; first compound 0.253 µM) | relative viability (Sorafenib + OSI-027; first compound 2.53 µM) | relative viability (Sorafenib + OSI-027; first compound 8 µM) | relative viability (Sorafenib + Decitabine; first compound 0.08 µM) | relative viability (Sorafenib + Decitabine; first compound 0.253 µM) | relative viability (Sorafenib + Decitabine; first compound 2.53 µM) | relative viability (Sorafenib + Decitabine; first compound 8 µM) | relative viability (Sorafenib + OSI-027; first compound 0.08 µM)
201T | 0.34 | 0.343 | 0.36 | 0.357 | 1.1 | 1.07 | 1.19 | 1.18 | 1.19 | 1.24 | 1.27 | 1.18 | 0.706 | 0.804 | 0.671 | 0.854 | 0.816 | 0.867 | 0.879 | –
A-427 | 0.531 | 0.553 | 0.589 | 0.474 | 0.953 | 0.922 | 0.96 | 0.817 | 0.946 | 0.917 | 0.985 | 0.563 | 0.511 | 0.432 | 0.219 | 0.598 | 0.528 | – | 0.532 | 0.522
ABC-1 | 0.712 | 0.682 | 0.854 | 0.725 | 0.36 | 0.253 | 0.321 | 0.336 | – | – | – | – | 0.49 | 0.654 | 0.37 | 1.23 | – | 0.823 | 1 | 0.575
BEN | 0.48 | 0.513 | 0.413 | 0.516 | 0.951 | 0.659 | – | 0.631 | 0.09 | 0.0558 | 0.0776 | 0.0641 | 0.326 | 0.338 | 0.27 | 0.746 | 0.726 | – | 0.461 | 0.318
CAL-12T | 0.512 | 0.396 | 0.489 | 0.247 | 1.04 | 0.689 | 1.24 | 0.465 | 1.32 | 1.19 | 1.06 | 0.64 | 0.492 | 0.565 | 0.299 | – | – | – | – | 0.78
COR-L23 | 0.301 | 0.288 | 0.319 | 0.264 | 1.11 | 0.964 | 0.888 | 0.877 | 1.03 | 0.898 | 1.1 | 0.485 | 0.725 | 0.754 | – | 0.417 | 0.374 | 0.501 | 0.332 | 0.874
COR-L 105 | 0.452 | 0.365 | 0.411 | 0.384 | – | 0.806 | 0.994 | 0.478 | 0.792 | 0.821 | 0.89 | 0.865 | 0.735 | 1.05 | 0.677 | 0.733 | 0.617 | 0.695 | 0.573 | 0.816
ChaGo-K-1 | 0.908 | 0.894 | – | 0.679 | 1.18 | 0.781 | 1.16 | 0.451 | 1.23 | 0.866 | 1.11 | 0.576 | 0.397 | 0.683 | 0.46 | 0.532 | 0.537 | 0.51 | 0.471 | 0.583
